{"source": "patent US8252723B2", "about": "“Substituted 1-(3-pyridinyl)pyrazol-4-ylacetic acids, processes for their preparation and their use as herbicides and plant growth regulators” (Bayer CropScience AG, priority 2006, dated 2012)"}
{"test_system": "summer wheat of the cultivar 'Triso'", "test": "Plant growth regulation test: culm stabilization of crop plants", "format": "in vivo", "conditions": "application rate of 30 to 300 g of active substance per hectare, treated at stage BBCH 31, culm length measured after ears had formed", "procedure,_shortened": "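Wettable-powder formulation with adjuvant (1 l/ha) sprayed at 300 l water/ha onto pot-grown plants at BBCH 31, then kept outdoors. After ear formation culm length was measured; culm stabilization is expressed as percent of untreated control.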"}
{"compound": "CCCOC(=O)Cc1c(C)nn(-c2cccnc2)c1-c1ccccn1", "note": "[Example 3-34]", "longitudinal growth (culm length) of summer wheat": "effectively shortened"}
{"compound": "COC(=O)Cc1c(C)nn(-c2cccnc2)c1-c1ccc(Cl)nc1", "note": "[Example 2-134]", "longitudinal growth (culm length) of summer wheat": "effectively shortened"}
{"compound": "COC(=O)Cc1c(C)nn(-c2cccnc2)c1-c1cc(C)ccn1", "note": "[Example 2-136]", "longitudinal growth (culm length) of summer wheat": "effectively shortened"}
{"compound": "COC(=O)Cc1c(C)nn(-c2cccnc2)c1-c1ccc(C(C)=O)cc1", "note": "[Example 2-121]", "longitudinal growth (culm length) of summer wheat": "effectively shortened"}
{"compound": "C=C(Cl)COC(=O)Cc1c(C)nn(-c2cccnc2)c1-c1ccc(Cl)s1", "note": "[Example 3-190]", "longitudinal growth (culm length) of summer wheat": "effectively shortened"}
{"compound": "COc1ccc(-n2nc(C)c(CC(=O)O)c2-c2ccccc2)cn1", "note": "[Example 1-5]", "longitudinal growth (culm length) of summer wheat": "effectively shortened"}
{"compound": "CC(C)=CCOC(=O)Cc1c(C)nn(-c2cccnc2)c1-c1ccccc1", "note": "[Example 3-152]", "longitudinal growth (culm length) of summer wheat": "effectively shortened"}
{"compound": "COC(=O)Cc1c(-c2ccccc2)nn(-c2cccnc2)c1-c1ccccc1", "note": "[Example 2-1]", "longitudinal growth (culm length) of summer wheat": "effectively shortened"}
{"compound": "COC(=O)Cc1c(C)nn(-c2cnccc2[S+](C)[O-])c1-c1ccc(Cl)cc1", "note": "(stereo not drawn) [Example 2-64]", "longitudinal growth (culm length) of summer wheat": "effectively shortened"}
{"compound": "CC#CCOC(=O)Cc1c(C)nn(-c2cccnc2)c1-c1ccccc1", "note": "[Example 3-117]", "longitudinal growth (culm length) of summer wheat": "effectively shortened"}
{"compound": "Cc1nn(-c2cccnc2)c(-c2ccc(Cl)cn2)c1CC(=O)O", "note": "[Example 1-110]", "longitudinal growth (culm length) of summer wheat": "effectively shortened"}
{"compound": "COC(=O)Cc1c(C)nn(-c2cccnc2)c1-c1ccc(Cl)s1", "note": "[Example 2-60]", "longitudinal growth (culm length) of summer wheat": "effectively shortened"}
{"compound": "COC(=O)Cc1c(C)nn(-c2cccnc2)c1-c1ccc(C(F)(F)F)cc1", "note": "[Example 2-28]", "longitudinal growth (culm length) of summer wheat": "effectively shortened"}
{"compound": "Cc1nn(-c2cnccc2Cl)c(-c2ccc(Cl)cc2)c1CC(=O)O", "note": "[Example 1-29]", "longitudinal growth (culm length) of summer wheat": "effectively shortened"}
{"compound": "Cc1nn(-c2ccc(Cl)nc2)c(-c2ccccc2)c1CC(=O)O", "note": "[Example 1-7]", "longitudinal growth (culm length) of summer wheat": "effectively shortened"}
{"compound": "C#CCOC(=O)Cc1c(C)nn(-c2cnccc2C)c1-c1ccc(Cl)cc1", "note": "[Example 3-75]", "longitudinal growth (culm length) of summer wheat": "effectively shortened"}
{"compound": "C=C(Cl)COC(=O)Cc1c(C)nn(-c2cccnc2)c1-c1ccsc1", "note": "[Example 3-187]", "longitudinal growth (culm length) of summer wheat": "effectively shortened"}
{"compound": "COC(=O)Cc1c(C)nn(-c2cnccc2OC)c1-c1ccc(Cl)cc1", "note": "[Example 2-35]", "longitudinal growth (culm length) of summer wheat": "effectively shortened"}
{"compound": "C=C(Cl)COC(=O)Cc1c(C)nn(-c2cccnc2)c1-c1ccc(F)cc1", "note": "[Example 3-198]", "longitudinal growth (culm length) of summer wheat": "effectively shortened"}
{"compound": "Cc1ccc(-c2c(CC(=O)O)c(C)nn2-c2cccnc2)nc1", "note": "[Example 1-113]", "longitudinal growth (culm length) of summer wheat": "effectively shortened"}
{"compound": "COC(=O)Cc1c(C)nn(-c2cnccc2C)c1-c1ccc(C)c(C)c1", "note": "[Example 2-116]", "longitudinal growth (culm length) of summer wheat": "effectively shortened"}
{"compound": "COc1ccc(-c2c(CC(=O)O)c(C)nn2-c2cnccc2C)cc1", "note": "[Example 1-13]", "longitudinal growth (culm length) of summer wheat": "effectively shortened"}
{"compound": "COc1ccncc1-n1nc(C)c(CC(=O)O)c1-c1ccc(Cl)cc1", "note": "[Example 1-35]", "longitudinal growth (culm length) of summer wheat": "effectively shortened"}
{"compound": "COC(=O)Cc1c(C)nn(-c2cnccc2C)c1-c1ccc(Cl)cc1", "note": "[Example 2-25]", "longitudinal growth (culm length) of summer wheat": "effectively shortened"}
{"compound": "C=C(Cl)COC(=O)Cc1c(C)nn(-c2cccnc2)c1-c1ccccn1", "note": "[Example 3-203]", "longitudinal growth (culm length) of summer wheat": "effectively shortened"}
{"compound": "COC(=O)Cc1c(C)nn(-c2cnccc2[S+](C)[O-])c1-c1ccccc1", "note": "(stereo not drawn) [Example 2-71]", "longitudinal growth (culm length) of summer wheat": "effectively shortened"}
{"compound": "Cc1nn(-c2cccnc2)c(-c2ccccc2)c1CC(=O)OCC#Cc1ccccc1", "note": "[Example 3-164]", "longitudinal growth (culm length) of summer wheat": "effectively shortened"}
